Here are results for ten compounds from US20230013823A1, “INHIBITORS OF HUMAN IMMUNODEFICIENCY VIRUS REPLICATION” (VIV HEALTHCARE UK (No. 5) LIMITED, priority 2019, published 2023).

SMILES strings stand for the structures.

Data set [1] relates to recombinant NL4-3 virus (Renilla luciferase in nef). The data set is described as follows: HIV cell culture assay (antiviral activity, luciferase readout in MT-2 cells). It counts as cell-based. To be noted: Renilla, NL43. The protocol: HIV cell culture assay—MT=2 cells, 293T cells and the proviral DNA clone of NL4-3 virus were obtained from the NIH AIDS Research and Reference Reagent Program. MT=2 cells were propagated in RPMI 1640 media supplemented with 10% heat inactivated fetal bovine serum (FBS), […] penicillin G and up to 100 units/mL streptomycin. The 293T cells were propagated in DMEM media supplemented with 10% heat inactivated FBS, […] penicillin G and […] streptomycin. A recombinant NL4-3 proviral clone, in which a section of the nef gene was replaced with the Renilla luciferase gene, was used to make the reference virus used in these studies. The recombinant virus was prepared through transfection of the recombinant NL4-3 proviral clone into 293T cells using Transit-293 Transfection Reagent from Mirus Bio LLC (Madison, Wis.). Supernatent was harvested after 2-3 days and the amount of virus present was titered in MT=2 cells using luciferase enzyme activity as a marker by measuring luciferase enzyme activity. Luciferase was quantitated using the EnduRen Live Cell Substrate from Promega (Madison, Wis.). Antiviral activities of compounds toward the recombinant virus were quantified by measuring luciferase activity in MT=2 cells infected for 4-5 days with the recombinant virus in the presence of serial dilutions of the compound.
The 50% effective concentration (EC50) was calculated by using the exponential form of the median effect equation where (Fa)=1/[1+(ED50/drug conc.)m] (Johnson V A, Byington R T. Infectivity Assay. In Techniques in HIV Research. ed. Aldovini A, Walker B D. 71-76. New York: Stockton Press. 1990). The 50% inhibitory concentration (EC50) was calculated by using the exponential form of the median effect equation where percent inhibition=1/[1+(EC50/drug concentration)m], where m is a parameter that reflects the slope of the concentration-response curve.

Data set [2] is described as follows: Compound cytotoxicity, XTT-based colorimetric assay. The conditions noted are these: human; uninfected MT2 cells, day 4, XTT. It counts as cell-based. The protocol: Compound cytotoxicity and the corresponding CC50 values were determined using the same protocol as described in the antiviral assay except that uninfected cells were used. Cytotoxicity was assessed on day 4 in uninfected MT2 cells by using an XTT (2,3-bis[2-Methoxy-4-nitro-5-sulfophenyl]-2H-tetrazolium-5-carboxyanilide inner salt)-based colorimetric assay (Sigma-Aldrich, St Louis, Mo.).
(In general: Tetrazolium dyes change colour on reduction, which living cells bring about.)

Consider `Cc1cc(-c2ccc3c(=O)n(-c4ccc(Cl)c5c(NS(C)(=O)=O)nn(C)c45)c([C@H](Cc4cc(F)cc(F)c4)NC(=O)Cn4nc(C(F)F)c5c4C(F)(F)[C@@H]4C[C@H]54)nc3c2)nc(C(F)(F)F)n1` (atropisomer, axis not shown; (P)) [Example 26, N—((S)-1-((3P)-3-(4-chloro-1-methyl-3-(methylsulfonamido)-1H-indazol-7-yl)-7-(6-methyl-2-(trifluoromethyl)pyrimidin-4-yl)-4-oxo-3,4-dihydroquinazolin-2-yl)-2-(3,5-difluorophenyl)ethyl)-2-((3bS,4aR)-3-(difluoromethyl)-5,5-difluoro-3b,4,4a,5-tetrahydro-1H-cyclopropa[3,4]cyclopenta[1,2-c]pyrazol-1-yl)acetamide], for which the EC50 (commonly the concentration at which the effect is half-maximal) in data set [1] turned out to be 0.087 nM. The CC50 – broadly, the concentration that lowers cell viability or growth by half – at 4 days in data set [2] is greater than 100 nM.

Turning to `CC(F)(F)Cn1ccc(-c2ccc3c(=O)n(-c4ccc(Cl)c5c(NS(C)(=O)=O)nn(CC(F)F)c45)c([C@H](Cc4cc(F)cc(F)c4)NC(=O)Cn4nc(C(F)F)c5c4C(F)(F)[C@@H]4C[C@H]54)nc3c2)n1` (atropisomer, axis not shown; (P)) [Example 64, N—((S)-1-((3P)-3-(4-chloro-1-(2,2-difluoroethyl)-3-(methylsulfonamido)-1H-indazol-7-yl)-7-(1-(2,2-difluoropropyl)-1H-pyrazol-3-yl)-4-oxo-3,4-dihydroquinazolin-2-yl)-2-(3,5-difluorophenyl)ethyl)-2-((3bS,4aR)-3-(difluoromethyl)-5,5-difluoro-3b,4,4a,5-tetrahydro-1H-cyclopropa[3,4]cyclopenta[1,2-c]pyrazol-1-yl)acetamide], the EC50 in data set [1] turned out to be 0.087 nM. For the same compound, in data set [2], the CC50 at 4 days is greater than 100 nM. For `CC(F)(F)Cn1ccc(-c2ccc3c(=O)n(-c4ccc(Cl)c5c(NS(=O)(=O)C6CC6)nn(CC(F)F)c45)c([C@H](Cc4cc(F)cc(F)c4)NC(=O)Cn4nc(C(F)F)c5c4C(F)(F)[C@@H]4C[C@H]54)nc3c2)n1` (atropisomer, axis not shown; (P)) [Example 69, N—((S)-1-((3P)-3-(4-chloro-3-(cyclopropanesulfonamido)-1-(2,2-difluoroethyl)-1H-indazol-7-yl)-7-(1-(2,2-difluoropropyl)-1H-pyrazol-3-yl)-4-oxo-3,4-dihydroquinazolin-2-yl)-2-(3,5-difluorophenyl)ethyl)-2-((3bS,4aR)-3-(difluoromethyl)-5,5-difluoro-3b,4,4a,5-tetrahydro-1H-cyclopropa[3,4]cyclopenta[1,2-c]pyrazol-1-yl)acetamide] the same measures were 0.16 nM and greater than 100 nM. For `CCC(F)(F)Cn1ccc(-c2ccc3c(=O)n(-c4ccc(Cl)c5c(NS(C)(=O)=O)nn(C)c45)c([C@H](Cc4cc(F)cc(F)c4)NC(=O)Cn4nc(C(F)F)c5c4C(F)(F)[C@@H]4C[C@H]54)nc3c2)n1` (atropisomer, axis not shown; (P)) [Example 49, N—((S)-1-((3P)-3-(4-chloro-1-methyl-3-(methylsulfonamido)-1H-indazol-7-yl)-7-(1-(2,2-difluorobutyl)-1H-pyrazol-3-yl)-4-oxo-3,4-dihydroquinazolin-2-yl)-2-(3,5-difluorophenyl)ethyl)-2-((3bS,4aR)-3-(difluoromethyl)-5,5-difluoro-3b,4,4a,5-tetrahydro-1H-cyclopropa[3,4]cyclopenta[1,2-c]pyrazol-1-yl)acetamide] the same measures were 0.081 nM and greater than 100 nM.

`Cc1cc(-c2ccc3c(=O)n(-c4ccc(Cl)c5c(NS(C)(=O)=O)nn(C)c45)c([C@H](Cc4cc(F)cc(F)c4)NC(=O)Cn4nc(C(F)F)c5c4C(F)(F)[C@@H]4C[C@H]54)nc3c2)nn1CC(F)(F)C(F)(F)F` (atropisomer, axis not shown; (P)) [Example 60, N—((S)-1-((3P)-3-(4-chloro-1-methyl-3-(methylsulfonamido)-1H-indazol-7-yl)-7-(5-methyl-1-(2,2,3,3,3-pentafluoropropyl)-1H-pyrazol-3-yl)-4-oxo-3,4-dihydroquinazolin-2-yl)-2-(3,5-difluorophenyl)ethyl)-2-((3bS,4aR)-3-(difluoromethyl)-5,5-difluoro-3b,4,4a,5-tetrahydro-1H-cyclopropa[3,4]cyclopenta[1,2-c]pyrazol-1-yl)acetamide]: the EC50 in data set [1] is 0.21 nM. Besides, in data set [2], the CC50 at 4 days is greater than 100 nM. The matching figures for `Cn1nc(NS(C)(=O)=O)c2c(Cl)ccc(-n3c([C@H](Cc4cc(F)cc(F)c4)NC(=O)Cn4nc(C(F)F)c5c4C(F)(F)[C@@H]4C[C@H]54)nc4cc(-c5cccc(C(C)(F)F)n5)ccc4c3=O)c21` (atropisomer, axis not shown; (P)) [Example 28, N—((S)-1-((3P)-3-(4-chloro-1-methyl-3-(methylsulfonamido)-1H-indazol-7-yl)-7-(6-(1,1-difluoroethyl)pyridin-2-yl)-4-oxo-3,4-dihydroquinazolin-2-yl)-2-(3,5-difluorophenyl)ethyl)-2-((3bS,4aR)-3-(difluoromethyl)-5,5-difluoro-3b,4,4a,5-tetrahydro-1H-cyclopropa[3,4]cyclopenta[1,2-c]pyrazol-1-yl)acetamide]: 0.12 nM and greater than 100 nM.

As to `Cn1nc(NS(C)(=O)=O)c2c(Cl)ccc(-n3c([C@H](Cc4cc(F)cc(F)c4)NC(=O)Cn4nc(C(F)F)c5c4C(F)(F)[C@@H]4C[C@H]54)nc4cc(-c5nc(C(F)(F)F)ccc5F)ccc4c3=O)c21` (atropisomer, axis not shown; (P)) [Example 21, N—((S)-1-((3P)-3-(4-chloro-1-methyl-3-(methylsulfonamido)-1H-indazol-7-yl)-7-(3-fluoro-6-(trifluoromethyl)pyridin-2-yl)-4-oxo-3,4-dihydroquinazolin-2-yl)-2-(3,5-difluorophenyl)ethyl)-2-((3bS,4aR)-3-(difluoromethyl)-5,5-difluoro-3b,4,4a,5-tetrahydro-1H-cyclopropa[3,4]cyclopenta[1,2-c]pyrazol-1-yl)acetamide], the EC50 in data set [1] was found to be 0.15 nM. In addition, the CC50 at 4 days in data set [2] is greater than 100 nM. The matching figures for `Cn1nc(NS(C)(=O)=O)c2c(Cl)ccc(-n3c([C@H](Cc4cc(F)cc(F)c4)NC(=O)Cn4nc(C(F)F)c5c4C(F)(F)[C@@H]4C[C@H]54)nc4cc(-c5ccc6ocnc6c5)ccc4c3=O)c21` (atropisomer, axis not shown; (P)) [Example 46, N—((S)-1-(7-(benzo[d]oxazol-5-yl)-(3P)-3-(4-chloro-1-methyl-3-(methylsulfonamido)-1H-indazol-7-yl)-4-oxo-3,4-dihydroquinazolin-2-yl)-2-(3,5-difluorophenyl)ethyl)-2-((3bS,4aR)-3-(difluoromethyl)-5,5-difluoro-3b,4,4a,5-tetrahydro-1H-cyclopropa[3,4]cyclopenta[1,2-c]pyrazol-1-yl)acetamide]: 0.34 nM and greater than 100 nM. As for `Cn1nc(NS(C)(=O)=O)c2c(Cl)ccc(-n3c([C@H](Cc4cc(F)cc(F)c4)NC(=O)Cn4nc(C(F)F)c5c4C(F)(F)[C@@H]4C[C@H]54)nc4cc(-c5ccc(F)nc5F)ccc4c3=O)c21` (atropisomer, axis not shown; (P)) [Example 6, N—((S)-1-((3P)-3-(4-chloro-1-methyl-3-(methylsulfonamido)-1H-indazol-7-yl)-7-(2,6-difluoropyridin-3-yl)-4-oxo-3,4-dihydroquinazolin-2-yl)-2-(3,5-difluorophenyl)ethyl)-2-((3bS,4aR)-3-(difluoromethyl)-5,5-difluoro-3b,4,4a,5-tetrahydro-1H-cyclopropa[3,4]cyclopenta[1,2-c]pyrazol-1-yl)acetamide], the EC50 in data set [1] amounted to 0.047 nM. On the same count and under the same terms, the same measure for `Cn1nc(NS(C)(=O)=O)c2c(Cl)ccc(-n3c([C@H](Cc4cc(F)cc(F)c4)NC(=O)Cn4nc(C(F)F)c5c4C(F)(F)[C@@H]4C[C@H]54)nc4cc(-c5ncc(F)cc5Cl)ccc4c3=O)c21` (atropisomer, axis not shown; (P)) [Example 10, N—((S)-1-((3P)-3-(4-chloro-1-methyl-3-(methylsulfonamido)-1H-indazol-7-yl)-7-(3-chloro-5-fluoropyridin-2-yl)-4-oxo-3,4-dihydroquinazolin-2-yl)-2-(3,5-difluorophenyl)ethyl)-2-((3bS,4aR)-3-(difluoromethyl)-5,5-difluoro-3b,4,4a,5-tetrahydro-1H-cyclopropa[3,4]cyclopenta[1,2-c]pyrazol-1-yl)acetamide]: 0.11 nM.
